From patent US7071344B1, “Vitamin D derivatives with cyclopropyl rings in the lateral chains, a method and intermediate products for the production thereof and the utilization thereof for producing medicaments” (Schering AG, priority 1997, dated 2006)

Legend:
[1] = acute hypercalcemic action (serum-calcium) in rats; format: in vivo, rat; conditions: dose ratio test substance/calcitriol for comparable hypercalcemic action; one-time subcutaneous administration, male rats
Experimental: To determine the acute hypercalcemic action of various calcitriol derivatives, the test that is described below is carried out:
The action of control (solution base), reference substance (1,25-dihydroxy vitamin D3=calcitriol) and test substance is tested in each case after one-time subcutaneous administration in groups of 10 healthy male rats (140–170 g). During the testing time, the rats are kept in special cages to determine the excretion of water and mineral substances. Urine is collected in 2 fractions (0–16 hours and 16–22 hours). An oral dose of calcium (0.1 mmol of calcium in 6.5% alpha-hydroxypropylcellulose, 5 ml/animal) replaces at 1600 hours the calcium intake that is lacking by food deprivation. At the end of the test, the animals are killed by decapitation and exsanguinated to determine the serum-calcium values. For the primary screen test in vivo, an individual standard dose (200 μg/kg) is tested. For selected substances, the result is supported by establishing a dose-effect relation.
A hypercalcemic action is shown in serum-calcium level values that are higher than in the control.
The significance of differences between substance groups and controls and between test substance and reference substance are supported with suitable statistical processes.

[2] = metabolic stability in liver homogenate; format: in vitro ADME; conditions: half-life in the liver homogenate (rat); for half-life: read-out: T½
Experimental: To determine the metabolic stability, the test substance is incubated with tissue homogenate (from the rat liver) in the presence of buffer systems. The drop in starting concentration is tracked as a function of time. After a certain time, the incubation is stopped, and the unaltered test substance is extracted from the homogenate (diethyl ether), concentrated by evaporation under nitrogen, isolated via HPLC (mobile solvent: acetonitrile/water) and detected using UV-absorption.

HL 60 cells = assay: differentiation induction of HL 60 cells to macrophages (NBT reduction); format: cell-based, human; conditions: dose ratio test substance/calcitriol for comparable semi-maximum differentiation induction; 96 hours incubation
Experimental: The differentiation-stimulating action of calcitriol analogues is also detected quantitatively.
It is known in the literature [Mangelsdorf, D. J. et al., J. Cell. Biol. 98: 391 (1984)] that the treatment of human leukemia cells (promyelocyte cell line HL 60) in vitro with calcitriol induces the differentiation of cells to macrophages.
HL 60 cells are cultivated in tissue culture medium (RPMI 10% fetal calf serum) at 37° C. in an atmosphere of 5% CO2 in air.
For substance testing, the cells are centrifuged off, and 2.0×10^5 cells/ml in phenol red-free tissue culture medium is taken up. The test substances are dissolved in ethanol and diluted with tissue culture medium without phenol red to the desired concentration. The dilution stages are mixed with the cell suspension at a ratio of 1:10, and 100 μl each of this cell suspension that is mixed with substance is pipetted into an indentation of a 96-hole plate. For control, a cell suspension is mixed analogously with the solvent.
After incubation for 96 hours at 37° C. in 5% CO2 in air, 100 μl of an NBT-TPA solution (nitro blue tetrazolium (NBT), final concentration in the batch of 1 mg/ml, tetradecanoyl phorbolmyristate-13-acetate (TPA), final concentration in the batch of 2×10^−7 mol/l) is pipetted into each indentation of the 96-hole plate in the cell suspension.
By incubation for 2 hours at 37° C. and 5% CO2 in air, NBT is reduced to insoluble formazan because of the intracellular oxygen radical release, stimulated by TPA, in the cells that are differentiated to macrophages.
To complete the reaction, the indentations of the 96-hole plate are suctioned off, and the cells are affixed to the bottom of the plate by adding methanol and dried after affixing. To dissolve the intracellular formazan crystals that are formed, 100 μl of potassium hydroxide (2 mol/l) and 100 μl of dimethyl sulfoxide are pipetted into each indentation and ultrasonically treated for 1 minute. The concentration of formazan is measured by spectrophotometry at 650 nm.
As a yardstick for the differentiation induction of HL 60 cells to macrophages, the concentration of formed formazan applies.

calcitriol receptor = biological target: T1, calcitriol receptor (Sus scrofa, UniProt A3RGC1); assay: calcitriol-receptor test (competition with 3H-calcitriol); conditions: competition factor = concentration of test substance / concentration of calcitriol at 50% competition; protein extract from intestines of juvenile pigs
T1 sequence (A3RGC1 1-427): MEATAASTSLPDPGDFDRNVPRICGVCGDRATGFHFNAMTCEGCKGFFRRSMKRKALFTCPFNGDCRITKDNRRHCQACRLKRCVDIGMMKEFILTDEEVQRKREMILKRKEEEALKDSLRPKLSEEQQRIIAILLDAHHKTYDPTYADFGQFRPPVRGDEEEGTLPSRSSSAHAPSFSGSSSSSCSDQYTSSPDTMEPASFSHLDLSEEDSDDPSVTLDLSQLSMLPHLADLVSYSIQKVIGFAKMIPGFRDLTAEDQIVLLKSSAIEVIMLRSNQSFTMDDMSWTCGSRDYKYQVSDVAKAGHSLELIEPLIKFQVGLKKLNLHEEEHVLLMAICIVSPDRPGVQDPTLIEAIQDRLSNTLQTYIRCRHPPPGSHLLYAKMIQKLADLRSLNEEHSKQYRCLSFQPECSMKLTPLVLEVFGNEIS
Experimental: The vitamin D activity of the substances according to the invention is determined with the aid of the calcitriol-receptor test. It is carried out using a protein extract from the intestines of juvenile pigs.
Then, the samples are centrifuged at 10,000 g for 5 minutes at 4° C. The supernatant is decanted and measured in a β-counter after 1 hour of equilibration in Picofluor 15™.
The competition curves that are obtained at various concentrations of test substance as well as of reference substance (unlabeled calcitriol) at constant concentration of the reference substance (^3H-calcitriol) are placed in relation to one another, and a competition factor (KF) is determined.
It is defined as a quotient of the concentrations of the respective test substance and the reference substance, which are necessary for 50% competition:

Compound	DR Ca [1]	KF (calcitriol receptor)	T½ [2] [h]	half-life [2] [h]	DR HL 60 (HL 60 cells)
C=C1/C(=C\C=C2/CCC[C@]3(C)[C@@H]([C@H](C)CCCC(C)(C)O)CC[C@@H]23)C[C@@H](O)C[C@@H]1O [calcitriol, 1α,25-dihydroxy vitamin D3, reference compound]	1	–	–	2	1
C=C1/C(=C\C=C2/CCC[C@]3(C)[C@@H]([C@H](C)/C=C/CC4(C(C)=O)CC4)CC[C@@H]23)C[C@@H](O)C[C@@H]1O [Compound 66, (5Z,7E,22E)-(1S,3R)-25-Acetyl-26,27-cyclo-9,10-secocholesta-5,7,10(19),22-tetraene-1,3-diol]	30	10	1.83	–	0.5
C=C1/C(=C\C=C2/CCC[C@]3(C)[C@@H]([C@H](C)/C=C/CCC4(C(C)=O)CC4)CC[C@@H]23)C[C@@H](O)C[C@@H]1O [Compound 126, (5Z,7E,22E)-(1S,3R)-25-Acetyl-26,27-cyclo-24a-homo-9,10-secocholesta-5,7,10(19),22-tetraene-1,3-diol]	20	5	2	–	0.5
C=C1C(=CC=C2CCCC3(C)C2CCC3C(C)C(O)CCCC2(C(=O)CCC)CC2)CC(O)CC1O [Compound 132, (5Z,7E)-(1S,3R,22S)-25-(1-Oxobutyl)-26,27-cyclo-24a-homo-9,10-secocholesta-5,7,10(19)-triene-1,3,22-triol]	>100	20	1.67	–	2
C=C1C(=CC=C2CCCC3(C)C2CCC3C(C)C=CCC2(C(=O)CCCCC)CC2)CC(O)CC1O [Compound 81, (5Z,7E,22E)-(1S,3R)-25-(1-Oxohexyl)-26,27-cyclo-9,10-secocholesta-5,7,10(19),22-tetraene-1,3-diol]	>>300	40	>2	–	9
C=C1/C(=C\C=C2/CCC[C@]3(C)[C@@H]([C@H](C)/C=C/[C@@H](O)CCC4(C(C)=O)CC4)CC[C@@H]23)C[C@@H](O)C[C@@H]1O [Compound 168b, (5Z,7E,22E)-(1S,3R,24S)-25-acetyl-26,27-cyclo-24a,24b-dihomo-9,10-secocholesta-5,7,10(19),22-tetraene-1,3,24-triol]	>100	3	2	–	7
C=C1/C(=C\C=C2/CCC[C@]3(C)[C@@H]([C@H](C)[C@@H](O)CCCC4(C(C)=O)CC4)CC[C@@H]23)C[C@@H](O)C[C@@H]1O [Compound 127, (5Z,7E)-(1S,3R,22S)-25-Acetyl-26,27-cyclo-24a-homo-9,10-secocholesta-5,7,10(19)-triene-1,3,22-triol]	>100	30	2	–	4
C=C1C(=CC=C2CCCC3(C)C2CCC3C(C)C=CCCC2(C(=O)CCC)CC2)CC(O)CC1O [Compound 131, (5Z,7E,22E)-(1S,3R)-25-(1-oxobutyl)-26,27-cyclo-24a-homo-9,10-secocholesta-5,7,10(19) ,22-tetraene-1,3-diol]	30	10	2	–	0.2
[5Z,7E,22E,25(Z)]-(1S,3R,24S)-25-(1-octenyl)-26,27-cyclo-9,10-secocholesta-5,7,10(19),22-tetraene-1,3,24-triol [Compound 246b]	>>10	10	1.67	–	2
C=C1/C(=C\C=C2/CCC[C@]3(C)[C@@H]([C@H](C)/C=C/CC4(C(=O)CCCC)CC4)CC[C@@H]23)C[C@@H](O)C[C@@H]1O [Compound 76, (5Z,7E,22E)-(1S,3R)-25-(1-Oxopentyl)-26,27-cyclo-9,10-secocholesta-5,7,10(19),22-tetraene-1,3-diol]	>100	7	>2	–	19

Now from value to compound, other results behind:

DR Ca [1]	KF (calcitriol receptor)	T½ [2] [h]	Compound	half-life [2] [h]	DR HL 60 (HL 60 cells)
>5	3	1.67	C=C1C(=CC=C2CCCC3(C)C2CCC3C(C)C=CC(O)C2(CCCC)CC2)CC(O)CC1O [Compound 226b, (5Z,7E,22E)-(1S,3R,24R)-25-butyl-26,27-cyclo-9,10-secocholesta-5,7,10(19),22-tetraene-1,3,24-triol]	–	0.4
10	2	1.5	C=C1/C(=C\C=C2/CCC[C@]3(C)[C@@H]([C@H](C)/C=C/[C@@H](O)C4(/C=C/CC)CC4)CC[C@@H]23)C[C@@H](O)C[C@@H]1O [Compound 221b, [5Z,7E,22E,25(E)]-(1S,3R,24R)-25-(1-butenyl)-26,27-cyclo-9,10-secocholesta-5,7,10(19),22-tetraene-1,3,24-triol]	–	0.1
>100	1	1.5	C=C1/C(=C\C=C2/CCC[C@]3(C)[C@@H]([C@H](C)/C=C/[C@@H](O)CCC4(C(=O)CCC)CC4)CC[C@@H]23)C[C@@H](O)C[C@@H]1O [Compound 175b, (5Z,7E,22E)-(1S,3R,24S)-25-(1-oxobutyl)-26,27-cyclo-24a,24b-dihomo-9,10-secocholesta-5,7,10(19),22-tetraene-1,3,24-triol]	–	3
50	1	–	C=C1/C(=C\C=C2/CCC[C@]3(C)[C@@H]([C@H](C)/C=C/[C@@H](O)C4CC4)CC[C@@H]23)C[C@@H](O)C[C@@H]1O [calcipotriol, (5Z,7E,22E)-(1S,3R,24S)-26,27-Cyclo-9,10-secocholesta-5,7,10(19),22-tetraene-1,3,24-triol, reference compound]	0.667	1
>>30	20	1.67	C=C1/C(=C\C=C2/CCC[C@]3(C)[C@@H]([C@H](C)/C=C/[C@@H](O)C4(CCCCCCC)CC4)CC[C@@H]23)C[C@@H](O)C[C@@H]1O [Compound 236b, (5Z,7E,22E)-(1S,3R,24R)-25-heptyl-26,27-cyclo-9,10-secocholesta-5,7,10(19),22-tetraene-1,3,24-triol]	–	4
>>1	4	1.33	C=C1/C(=C\C=C2/CCC[C@]3(C)[C@@H]([C@H](C)/C=C/[C@H](O)C4(CCCC)CC4)CC[C@@H]23)C[C@@H](O)C[C@@H]1O [Compound 226a, (5Z,7E,22E)-(1S,3R,24S)-25-Butyl-26,27-cyclo-9,10-secocholesta-5,7,10(19),22-tetraene-1,3,24-triol]	–	2
